In patent publication US9994915B2, “miR-211 expression and related pathways in human melanoma” (Sanford-Burnham Medical Research Institute, priority 2010, dated 2018):

Tests used:
Type in all cases: cell-based, human
KCNMA1 protein = test: western blot of KCNMA1 protein in WM1552C lines; settings: stably transfected WM1552C lines
Method: qRT-PCR analyses were then run to determine whether the induced expression of miR-211 in melanoma cells could reduce KCNMA1 transcript levels. […] To further address whether KCNMA1 mRNA levels reflected KCNMA1 protein expression, a western blot analysis was performed looking for KCNMA1 in cell extracts obtained from: 1) WM1552C, 2) WM1552C/VO (WM1552C cells with a stably-incorporated empty expression vector), 3) WM1552C/211(400), 4) WM1552C/211(800), and 5) WM1552C/KC KO (WM1552C cells with a stably-expressing shRNA against the KCNMA1 mRNA) (FIG. 6C). […] To further confirm our observations, we measured the correlation between miR-211 expression and KCNMA1 protein levels (FIG. 6D). […] To confirm that this expression correlation occurred in non-transformed cells in addition to cancerous cell lines, the effect of miR-211 inhibition on the expression of KCNMA1 in melanocytes was examined. Melanocytes were transfected with anti-miR-211 inhibitors (Exiqon) and the protein expression of KCNMA1 was measured. […]
2.5×10^5 cells WM1552C/211(800) cells were seeded into wells of a 6-well plate. […] After 48 hours, the cells were harvested by trypsinization and counted using an automated cell counter (Cellometer®, Nexcelom Bioscience). […]
A KCNMA1 constitutively-expressing plasmid was transiently transfected into WM1552C/211(800) cells. […] KCNMA1 protein expression levels were then detected by KCNMA1 antibody. […]

IGFBP5 mRNA = test: Next Gen sequencing of IGFBP5 mRNA in WM1552C cells
Method: To extend the findings of the MITF knock-down study and to further establish IGFBP5 as a miR-211 target, the effect of miR-211 expression on IGFBP5 mRNA was determined. WM1552C cells were transfected with either an empty vector or the vector encoding and expressing miR-211. Additionally, untransfected WM1552C cells were treated with 5-Aza-2′deoxycytidine (“5-Aza”) to investigate whether miR-211 down-regulates IGFBP5 mRNA production through a genomic methylation mechanism.

WM1552C cells = test: cell counts in hypoxic chamber (2% O2), WM1552C/211; settings: WM1552C/211 cells, hypoxic chamber 2% O2 (parental WM1552C about 64%)
From the text: To test under actual hypoxic conditions, both cell lines were placed into a hypoxic chamber containing 2% O2 prior to determination of cell counts. […] As in the DFO-simulated hypoxic condition assay, the presence of miR-211 caused the effect to be greatly exacerbated, reducing survival to about 29%.

A375 cells [1] = test: abundance of mitochondria, MitoTracker; settings: miR-211-expressing cells
PDK4 = test: proteomics (mass spectrometric) data, PDK4 expression; settings: miR-211-expressing melanoma cells
Method: Deep-sequencing (RNA-seq) and proteomics (mass spectrometry) data from two melanoma cell lines A375 and WM1552C, each expressing miR-211 or the empty vector, were generated. […] Energy consumption was investigated in miR-211-expressing cells. Using the Seahorse XF96 Analyzer, it was determined that miR-211-expressing melanoma cells (A375) consumed nearly double the amount of oxygen as control cells expressing the empty vector (FIG. 35). […] Finally, we measured the level of hypoxia-inducible factor 1 alpha (HIF-1α) in miR-211-expressing cells. HIF-1α expression was reduced by miR-211 expression which is an indication of cellular respiration changes (FIG. 37).
This target was further confirmed by the cleavage assay, and the downregulation was verified by western blot analysis (FIG. 38). Similarly, peroxisome proliferator-activated receptor-γ coactivator (PGC1α) was identified by the proteomics data and validated by western blot analysis. PGC1α is a low express gene in A375 cells, but it is been targeted by miR-211 according to target cleavage and qPCR results. Finally, insulin-like growth factor-binding protein 5 (IGFBP5) was identified through the RNA-seq data and results are illustrated in FIG. 34.

A375 cells [2] = test: lipid species (PI acyl chains) by mass spectrometry in A375 vs A375/211; settings: A375/211 vs A375 cells
From the text: To determine the effect of miR-211 expression in A375 cells on the production of lipid species, as an indicator of metabolic change, fatty acids were isolated and quantitated in A375 cells and A375/211 by mass spectrometry. […] This confirms that miR-211 is capable of altering the metabolic profile of these metabolic cells.

With “miR-211: pre-miR-211 sequence stably expressed from plasmid pcDNA4/miR-211 in melanoma cells; mature sequence UUCCCUUUGUCAUCCUUCGCCU (SEQ ID NO: 15) (listed as Homo sapiens)” the “KCNMA1 protein levels compared to WM1552C/VO or untransfected WM1552C” value (KCNMA1 protein) was “significantly reduced”, the “IGFBP5 mRNA expression” value (IGFBP5 mRNA) was “almost to undetectably levels” and the “survival vs normoxic condition cells” value (WM1552C cells) was 34%. For the same substance, the “number of mitochondria vs empty vector-expressing cells” value (A375 cells [1]) was “higher number of mitochondria”, the PDK4 expression (PDK4) was “heavily downregulated” and the “content of 18:0-18:2 acyl chains” value (A375 cells [2]) was “large increase”. For the same substance, the “content of 18:0-20:4 acyl chains” value (A375 cells [2]) was “large decrease”.
